Data taken from patent US9381254B2, “Methods for preparing polymeric reagents” (Nektar Therapeutics, priority 2005, dated 2016).
Ends that are not written are not given here.

Experiments:
diabetic db/db mice = test: In-vivo study in mice of blood-glucose lowering effects of GLP-1 polymer conjugates; design: species or system mouse; settings: for PD effect when compared to the 20 kiloDalton PEG conjugate: single subcutaneous dose 420 μg; for blood glucose-lowering effect: single subcutaneous dose (GLP-1 60, 120 μg; conjugates 420 μg), FIG. 14
Experimental: Male diabetic mice (BKS.Cg-+Lepr db/+Lepr db/01aHsd) were purchased from Harlan Laboratories, Ltd. (Jerusalem, Israel). The 8-9 week old animals (30-40 gm) were placed in mouse cages (two animals per cage), and allowed at least 48 hours of acclimatization before the start of the study.
Each compound was accurately weighed into a glass vial and dissolved in normal saline in order to prepare a concentration that would accommodate for the dose (based on GLP-1 equivalents) and the injection volume of 100 μL.
The study was divided into two phases: a feasibility phase and an evaluation phase.
In the feasibility phase, the feasibility of using diabetic db/db mice to test the effectiveness of GLP-1 was first evaluated. In carrying out the feasibility phase, several groups of mice were used wherein four mice were used in each group. Data on the baseline glucose levels were gathered for each mouse for 2-3 days prior to drug dosing. This was performed to identify any outliers in the group of animals. On the day of treatment (Day 0) each animal was weighed. A time 0 day blood sample (5 to 10 μL) was collected from the tail vein. The glucose level (mg/dL) was measured using a glucose analyzer. Each animal was then dosed subcutaneously (SC) below the skin on the back. […] The animals were then allowed to return into their cages. Blood samples of 5 to 10 μL (<0.5% of 2 mL blood volume for a 35 g mouse) were removed through a needle prick/capillary tube at the following time points: −3, −2, −1, 0, 0.04, 0.16, 0.33, 1.0, 1.16 days. Each collected blood sample was tested for its glucose level. At the end of the study, the animals were humanely euthanized by carbon-dioxide asphyxiation.
In the evaluation phase, the results from the feasibility phase were used to select the appropriate doses required to attain a sustained delivery of GLP-1 for a 3-5 day effect. In carrying out the evaluation phase, eight mice were used in each group. Data on the baseline glucose levels were gathered for each mouse three days prior to drug dosing. On the day of treatment (Day 0) each animal was weighed. A time 0 day blood sample (5 to 10 μL) was collected from the tail vein. The glucose level (mg/dL) was measured using a glucose analyzer. Each animal was then dosed subcutaneously (SC) below the skin on the back. […] The animals were then allowed to return into their cages. Blood samples of 5 to 10 μL (<0.5% of 2 mL blood volume for a 35 g mouse) were removed through a needle prick/capillary tube at the following time points: −3, −2, −1, 0, 0.04, 0.16, 0.33, 0.5, 1, 2, 3, 6 days. Each collected blood sample was tested for its glucose level. Food was withdrawn from the animals for the first four hours after dosing. At the end of the study, the animals were humanely euthanized by carbon-dioxide asphyxiation.

[1] = Cleavable nature of GLP-1 conjugate in aqueous media (50 mM Tris, pH 10, overnight at 50° C.), SDS-PAGE / reverse phase HPLC; type: physicochemical; settings: 50 mM Tris solution
Experimental: The column was a 100 mm×2.1 mm ID Betasil C18 column with 5 μm particles, available from Thermo Electron Corp. Reverse phase HPLC used a mobile phase of 0.1% TFA in deionized water (solution C) and 0.1% TFA in acetonitrile (solution D) conducted at 37° C. The gradient used for reverse phase HPLC was as follows: for time 0.00 to 20.00 minutes, 35% of the mobile phase contained solution D; for time 20.00 to 21.00 minutes, 55% of the mobile phase contained solution D; for time 21.00 to 23.00 minutes, 80% of the mobile phase contained solution D; for time 23.00 to 24.00 minutes, 80% of the mobile phase contained solution D; for time 24.00 to 25.00 minutes, 35% of the mobile phase contained solution D; for time 25.00 and above, 35% of mobile phase contained solution D.

| Substance | PD effect when compared to the 20 kiloDalton PEG conjugate (diabetic db/db mice) | blood glucose-lowering effect (diabetic db/db mice) | release of GLP-1 from the conjugate [1] | clearance from the mouse (from pharmacodynamic measurements) (diabetic db/db mice; subcutaneous) |
| --- | --- | --- | --- | --- |
| G2PEG2Fmoc40K-Lys-GLP-1: G2PEG2Fmoc40k-NHS covalently and releasably attached to a lysine position of GLP-1 (HAEGTFTSDVSSYLEGQAAKEFIAWLVKGR; ends and bridges not checked; also: releasable G2PEG2Fmoc40K PEG on a lysine; UniProt P01275 98-127, looked up) | small but extended PD effect | confirmed |  |  |
| G2PEG2Fmoc20K-Lys-GLP-1: G2PEG2Fmoc20k-NHS covalently and releasably attached to a lysine position of GLP-1 (HAEGTFTSDVSSYLEGQAAKEFIAWLVKGR; ends and bridges not checked; also: releasable G2PEG2Fmoc20K PEG on a lysine; UniProt P01275 98-127, looked up) |  | confirmed |  |  |
| G2PEG2Fmoc40k-N^ter-GLP-1 | small but extended PD effect |  | complete release |  |
| Glucagon-like Peptide I (7-36, “GLP-1”) [reference compound] |  | confirmed |  | cleared rapidly |
